The target in this test is T1, IDO in Hela cells (Homo sapiens, UniProt P14902).
T1 construct: endogenous in cells; host or cells: HeLa cells stimulated with human interferon γ
T1 sequence (P14902 whole entry): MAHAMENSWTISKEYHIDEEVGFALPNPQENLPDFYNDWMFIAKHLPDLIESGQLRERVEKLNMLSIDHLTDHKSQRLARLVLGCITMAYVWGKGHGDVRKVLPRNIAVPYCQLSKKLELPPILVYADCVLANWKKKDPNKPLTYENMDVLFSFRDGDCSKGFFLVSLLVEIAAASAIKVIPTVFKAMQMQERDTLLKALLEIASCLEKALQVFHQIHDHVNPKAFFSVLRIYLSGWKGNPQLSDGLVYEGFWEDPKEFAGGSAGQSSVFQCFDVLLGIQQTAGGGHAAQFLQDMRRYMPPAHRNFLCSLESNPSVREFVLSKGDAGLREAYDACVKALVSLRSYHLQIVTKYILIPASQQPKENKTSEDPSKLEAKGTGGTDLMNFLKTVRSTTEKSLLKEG
Description: Test of cellular activity (kynurenine formation in interferon γ stimulated Hela cells). It is filed as cell-based. The following applies: head prints IPS cells, method: Hela cells, 48 h incubation, read at 480 nm. The method, then:
(3) Test Method of Cellular Activity
Hela cells (80 μL) was inoculated on a 96-well plate (5×10^3 for each well) to grow overnight. After the compound was diluted the next day, 1 μL of diluent and 100 μL of culture medium which contains human interferon γ (final concentration: 50 ng/m) were added into the 96-well plate to make the final volume reach […]. After incubating for 48 h, 80 μL of supernate was transferred from each well to a new […]. 10 μL 6.1N trichloroacetic acid was added into each well for mixing and incubation at 50° C. for 30 min, and […] N formyl-kynurenin into kynurenine. The reaction mixture was centrifuged at 2,500 rpm for 10 min, 70 μL of supernatant of each well was transferred to a new 96-well plate and mixed with 100 μL of 2% (w/v) dimethylaminobenzaldehyde acetic acid solution. After placing for 5-10 min, measurement was carried out at 480 nm with the SPECTRAmax i13 reader.
Usually IC50 stands for the concentration that inhibits the measured activity by half. Regarding `O=C(Nc1ccc(Cl)cc1)C1CCC12CCC(c1ccnc3ccc(F)cc13)CC2` (racemic) [Example 10B, (±) N-(4-chlorophenyl)-7-(6-fluoroquinolin-4-yl)spiro[3.5]nonane-1-carboxamide], the half-inhibitory concentration (IC50) was greater than 3 nM.
In the case of `O=C(Nc1ccc(F)cc1)C1CC2(CCC(c3ccnc4ccc(F)cc34)CC2)C1` (single isomer, unassigned) [Example 25, N-(4-fluorophenyl)-7-(6-fluoroquinolin-4-yl)spiro[3.5]nonane-2-carboxamide] it was 0.69 nM; in that of `O=C(Nc1ccc(Br)cc1)C1CC2(CCC(c3ccnc4ccc(F)cc34)CC2)C1` (single isomer, unassigned) [Example 26, N-(4-bromophenyl)-7-(6-fluoroquinoline-4-yl)spiro[3.5]nonane-2-carboxamide], 0.79 nM.
For `O=C(Nc1ccccn1)C1CC2(CCC(c3ccnc4ccc(F)cc34)CC2)C1` (single isomer, unassigned) [Example 27] the value was greater than 10 nM; for `Cn1ccc(-c2ccc(NC(=O)C3CC4(CCC(c5ccnc6ccc(F)cc56)CC4)C3)cc2F)n1` (single isomer, unassigned) [Example 28, N-(3-fluoro-4-(1-methyl-1H-pyrazol-3-yl)phenyl)-7-(6-fluoroquinolin-4-yl)spiro[3.5]nonane-2-carboxamide], greater than 10 nM.
Consider `O=C(Nc1ccccc1Cl)C1CC2(CCC(c3ccnc4ccc(F)cc34)CC2)C1` (single isomer, unassigned) [Example 29, N-(2-chlorophenyl)-7-(6-fluoroquinolin-4-yl)spiro[3.5]nonane-2-carboxamide], for which the concentration for half-maximal inhibition (IC50) is greater than 10 nM.
As for `O=C(Nc1ccc(Cl)cc1F)C1CC2(CCC(c3ccnc4ccc(F)cc34)CC2)C1` (single isomer, unassigned) [Example 30, N-(4-chloro-2-fluorophenyl)-7-(6-fluoroquinoline-4-yl)spiro[3.5]nonane-2-carboxamide], half-maximal inhibition (IC50) was put at 2.53 nM.
In turn, `O=C(Nc1cccc(F)c1)C1CC2(CCC(c3ccnc4ccc(F)cc34)CC2)C1` (single isomer, unassigned) [Example 31, N-(3-fluorophenyl)-7-(6-fluoroquinoline-4-yl)spiro[3.5]nonane-2-carboxamide] had an IC50 of 1.97 nM.
As to `O=C(Nc1cccc(Br)c1)C1CC2(CCC(c3ccnc4ccc(F)cc34)CC2)C1` (single isomer, unassigned) [Example 32, N-(3-bromophenyl)-7-(6-fluoroquinoline-4-yl)spiro[3.5]nonane-2-carboxamide], the IC50 was greater than 10 nM.
Compound `O=C(Nc1cccnc1)C1CC2(CCC(c3ccnc4ccc(F)cc34)CC2)C1` (single isomer, unassigned) [Example 33, 7-(6-fluoroquinoline-4-yl)-N-(pyridine-3-yl)spiro[3.5]nonane-2-carboxamide] gave an IC50 greater than 10 nM.
For `O=C(Nc1ccc(Cl)c(F)c1)C1CC2(CCC(c3ccnc4ccc(F)cc34)CC2)C1` (single isomer, unassigned) [Example 34, N-(3-fluoro-4-chlorophenyl)-7-(6-fluoroquinoline-4-yl)spiro[3.5]nonane-2-carboxamide] the value was 1.36 nM; for `O=C(Nc1ccc(C(F)(F)F)cc1)C1CC2(CCC(c3ccnc4ccc(F)cc34)CC2)C1` (single isomer, unassigned) [Example 35, 7-(6-fluoroquinolin-4-yl)-N-(4-(trifluoromethyl)phenyl)spiro[3.5]nonane-2-carboxamide], 6.23 nM; for `O=C(Nc1cccc(Cl)c1)C1CC2(CCC(c3ccnc4ccc(F)cc34)CC2)C1` (single isomer, unassigned) [Example 36, N-(3-chlorophenyl)-7-(6-fluoroquinoline-4-yl)spiro[3.5]nonane-2-carboxamide], 8.32 nM.
`O=C(Nc1ccc(Br)c(F)c1)C1CC2(CCC(c3ccnc4ccc(F)cc34)CC2)C1` (single isomer, unassigned) [Example 37, N-(3-fluoro-4-bromophenyl)-7-(6-fluoroquinoline-4-yl)spiro[3.5]nonane-2-carboxamide] came in with an IC50 greater than 10 nM.
In turn, `O=C(Nc1ccc(F)c(Cl)c1)C1CC2(CCC(c3ccnc4ccc(F)cc34)CC2)C1` (single isomer, unassigned) [Example 38, N-(3-chloro-4-fluorophenyl)-7-(6-fluoroquinoline-4-yl)spiro[3.5]nonane-2-carboxamide] displayed an IC50 greater than 10 nM.
In the case of `O=C(Nc1ccc(F)c(F)c1)C1CC2(CCC(c3ccnc4ccc(F)cc34)CC2)C1` (single isomer, unassigned) [Example 40, N-(3,4-difluorophenyl)-7-(6-fluoroquinoline-4-yl)spiro[3.5]nonane-2-carboxamide], the half-maximal inhibitory concentration (IC50) stood at 3.05 nM.
As to `O=C(Nc1ccccc1C(F)(F)F)C1CC2(CCC(c3ccnc4ccc(F)cc34)CC2)C1` (single isomer, unassigned) [Example 41, 7-(6-fluoroquinoline-4-yl)-N-(2-(trifluoromethyl)phenyl)spiro[3.5]nonane-2-carboxamide], the IC50 is greater than 10 nM.
`O=C(Nc1ccc(Cl)cn1)C1CC2(CCC(c3ccnc4ccc(F)cc34)CC2)C1` (single isomer, unassigned) [Example 42, N-(5-chloropyridine-2-yl)-7-(6-fluoroquinoline-4-yl)spiro[3.5]nonane-2-carboxamide] yielded a concentration for half-maximal inhibition (IC50) of 9.5 nM.
In the case of `O=C(Nc1ccc(-c2ccccc2)cc1)C1CC2(CCC(c3ccnc4ccc(F)cc34)CC2)C1` (single isomer, unassigned) [Example 43, N-([1,1′-biphenyl]-4-yl)-7-(6-fluoroquinolin-4-yl)spiro[3.5]nonane-2-carboxamide] it was 3.07 nM; in that of `O=C(Nc1cccc(-c2ccccc2)c1)C1CC2(CCC(c3ccnc4ccc(F)cc34)CC2)C1` (single isomer, unassigned) [Example 44, N-([1,1′-biphenyl]-3-yl)-7-(6-fluoroquinolin-4-yl)spiro[3.5]nonane-2-carboxamide], greater than 10 nM.
Regarding `O=C(Nc1ccc(C(F)(F)F)c(Cl)c1)C1CC2(CCC(c3ccnc4ccc(F)cc34)CC2)C1` (single isomer, unassigned) [Example 45, N-(3-chloro-4-(trifluoromethyl)phenyl)-7-(6-fluoroquinoline-4-yl)spiro[3.5]nonane-2-carboxamide], the IC50 was greater than 10 nM.
`O=C(Nc1ccccc1F)C1CC2(CCC(c3ccnc4ccc(F)cc34)CC2)C1` (single isomer, unassigned) [Example 46, N-(2-fluorophenyl)-7-(6-fluoroquinoline-4-yl)spiro[3.5]nonane-2-carboxamide] had a half-inhibitory concentration (IC50) of 2.74 nM.
As to `O=C(Nc1ccccc1Br)C1CC2(CCC(c3ccnc4ccc(F)cc34)CC2)C1` (single isomer, unassigned) [Example 47, N-(2-bromophenyl)-7-(6-fluoroquinoline-4-yl)spiro[3.5]nonane-2-carboxamide], the half-maximal inhibitory concentration (IC50) is greater than 10 nM.
The compound `O=C(Nc1ccncc1)C1CC2(CCC(c3ccnc4ccc(F)cc34)CC2)C1` (single isomer, unassigned) [Example 48] showed an IC50 greater than 10 nM.
In the case of `N#Cc1ccc(NC(=O)C2CC3(CCC(c4ccnc5ccc(F)cc45)CC3)C2)cc1` (single isomer, unassigned) [Example 49, N-(4-cyanophenyl)-7-(6-fluoroquinolin-4-yl)spiro[3.5]nonane-2-carboxamide] it was 1.32 nM.
`O=C(Nc1cccc(C(F)(F)F)c1)C1CC2(CCC(c3ccnc4ccc(F)cc34)CC2)C1` [Example 39, (2S,4s,7S)-7-(6-fluoroquinoline-4-yl)-N-(3-(trifluoromethyl)phenyl)spiro[3.5]nonane-2-carboxamide] yielded an IC50 greater than 10 nM.

These data come from patent US20210047290A1, “SPIRO COMPOUND AS INDOLEAMINE-2,3-DIOXYGENASE INHIBITOR” (SHANGHAI INSTITUTE OF ORGANIC CHEMISTRY, CHINESE ACADEMY OF …, priority 2018, published 2021).
